Measured values: PubChem BioAssay AID2060336 (Molecular Pharmacology Branch, DTP, NCI, 2025)
Where “and” joins values, the source holds several entries; their conditions need not be identical. Equal entries are not always repeated.

System: 958767-090-R-J1-PDC spheroid growth
Assay: Anticancer human tumor 958767-090-R-J1-PDC patient-derived head and neck squamous carcinoma cell line growth inhibition [IpAb]
Conditions: spheroids with HUVEC and MSC; for viability, T/C: stronger effect = lower value
How it was run: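 Combinations with ipatasertib or abemaciclib were tested on tumour spheroids holding HUVEC (25%) and MSC (15%) alongside 60% malignant cells. Top concentration was at or near clinical Cmax (10 microM if undefined), descending in half-log steps.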

[1] = curve of first compound, second compound 0.1 µM
[2] = curve of first compound, second compound 0.316 µM
[3] = curve of first compound, second compound 1 µM
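Also: spheroids exposed to agents for 7 days.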
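For viability, T/C in this document: 100% = DMSO vehicle control wells.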

## C=CCn1c(=O)c2cnc(Nc3ccc(N4CCN(C)CC4)cc3)nc2n1-c1cccc(C(C)(C)O)n1 + CC(C)NCC(C(=O)N1CCN(c2ncnc3c2C(C)CC3O)CC1)c1ccc(Cl)cc1
[1]
  IC50: 179 nM
[2]
  IC50: 85 nM
[3]
  IC50: 45.5 nM
Curve of first compound, second compound 3.16 µM
  IC50: 45.9 nM
Curve of first compound, second compound 10 µM
  IC50: < 31.6 nM
Second compound 0.1 µM, first compound 0.0316 µM
  viability, T/C: 88.2%
Second compound 0.1 µM, first compound 0.1 µM
  viability, T/C: 65%
Second compound 0.1 µM, first compound 0.316 µM
  viability, T/C: 35%
Second compound 0.1 µM, first compound 1 µM
  viability, T/C: 25%
Second compound 0.1 µM, first compound 3.16 µM
  viability, T/C: 23.7%
Second compound 0.1 µM, first compound 10 µM
  viability, T/C: 19.6%
Second compound 0.316 µM, first compound 0.0316 µM
  viability, T/C: 64.1%
Second compound 0.316 µM, first compound 0.1 µM
  viability, T/C: 47.7%
Second compound 0.316 µM, first compound 0.316 µM
  viability, T/C: 24.2%
Second compound 0.316 µM, first compound 1 µM
  viability, T/C: 17%
Second compound 0.316 µM, first compound 3.16 µM
  viability, T/C: 17.8%
Second compound 0.316 µM, first compound 10 µM
  viability, T/C: 15.2%
Second compound 1 µM, first compound 0.0316 µM
  viability, T/C: 52.1%
Second compound 1 µM, first compound 0.1 µM
  viability, T/C: 45.4%
Second compound 1 µM, first compound 0.316 µM
  viability, T/C: 23.5%
Second compound 1 µM, first compound 1 µM
  viability, T/C: 15.6%
Second compound 1 µM, first compound 3.16 µM
  viability, T/C: 16.9%
Second compound 1 µM, first compound 10 µM
  viability, T/C: 13%
Second compound 3.16 µM, first compound 0.0316 µM
  viability, T/C: 55%
Second compound 3.16 µM, first compound 0.1 µM
  viability, T/C: 39.6%
Second compound 3.16 µM, first compound 0.316 µM
  viability, T/C: 22.2%
Second compound 3.16 µM, first compound 1 µM
  viability, T/C: 16.2%
Second compound 3.16 µM, first compound 3.16 µM
  viability, T/C: 14.8%
Second compound 3.16 µM, first compound 10 µM
  viability, T/C: 11.9%
Second compound 10 µM, first compound 0.0316 µM
  viability, T/C: 39.1%
Second compound 10 µM, first compound 0.1 µM
  viability, T/C: 32.4%
Second compound 10 µM, first compound 0.316 µM
  viability, T/C: 17.9%
Second compound 10 µM, first compound 1 µM
  viability, T/C: 13.9%
Second compound 10 µM, first compound 3.16 µM
  viability, T/C: 13.6%
Second compound 10 µM, first compound 10 µM
  viability, T/C: 7.78%

## Cn1cnc2c(F)c(Nc3ccc(Br)cc3Cl)c(C(=O)NOCCO)cc21 + CCN1CCN(Cc2ccc(Nc3ncc(F)c(-c4cc(F)c5nc(C)n(C(C)C)c5c4)n3)nc2)CC1
Curve of first compound, second compound 0.01 µM
  IC50: 29.3 nM
Curve of first compound, second compound 0.0316 µM
  IC50: 27 nM
[1]
  IC50: 12.6 nM
[2]
  IC50: 9.64 nM
[3]
  IC50: 124 nM
Second compound 0.01 µM, first compound 0.00949 µM
  viability, T/C: 71%
Second compound 0.01 µM, first compound 0.03 µM
  viability, T/C: 49.4%
Second compound 0.01 µM, first compound 0.0949 µM
  viability, T/C: 35.2%
Second compound 0.01 µM, first compound 0.3 µM
  viability, T/C: 34.5%
Second compound 0.01 µM, first compound 0.949 µM
  viability, T/C: 30%
Second compound 0.01 µM, first compound 3 µM
  viability, T/C: 23.2%
Second compound 0.0316 µM, first compound 0.00949 µM
  viability, T/C: 65%
Second compound 0.0316 µM, first compound 0.03 µM
  viability, T/C: 47.7%
Second compound 0.0316 µM, first compound 0.0949 µM
  viability, T/C: 36.9%
Second compound 0.0316 µM, first compound 0.3 µM
  viability, T/C: 29.7%
Second compound 0.0316 µM, first compound 0.949 µM
  viability, T/C: 29.3%
Second compound 0.0316 µM, first compound 3 µM
  viability, T/C: 19.7%
Second compound 0.1 µM, first compound 0.00949 µM
  viability, T/C: 53.1%
Second compound 0.1 µM, first compound 0.03 µM
  viability, T/C: 41.9%
Second compound 0.1 µM, first compound 0.0949 µM
  viability, T/C: 34.9%
Second compound 0.1 µM, first compound 0.3 µM
  viability, T/C: 34.1%
Second compound 0.1 µM, first compound 0.949 µM
  viability, T/C: 26.7%
Second compound 0.1 µM, first compound 3 µM
  viability, T/C: 23.5%
Second compound 0.316 µM, first compound 0.00949 µM
  viability, T/C: 51.9%
Second compound 0.316 µM, first compound 0.03 µM
  viability, T/C: 41.9%
Second compound 0.316 µM, first compound 0.0949 µM
  viability, T/C: 40.1%
Second compound 0.316 µM, first compound 0.3 µM
  viability, T/C: 36.1%
Second compound 0.316 µM, first compound 0.949 µM
  viability, T/C: 28%
Second compound 0.316 µM, first compound 3 µM
  viability, T/C: 21.2%
Second compound 1 µM, first compound 0.00949 µM
  viability, T/C: 69.3%
Second compound 1 µM, first compound 0.03 µM
  viability, T/C: 67.2%
Second compound 1 µM, first compound 0.0949 µM
  viability, T/C: 51.9%
Second compound 1 µM, first compound 0.3 µM
  viability, T/C: 42.8%
Second compound 1 µM, first compound 0.949 µM
  viability, T/C: 44.5%
Second compound 1 µM, first compound 3 µM
  viability, T/C: 37%

## Cn1ncc(Cl)c1-c1cc(C(=O)NC(CN)Cc2cccc(F)c2)sc1Cl (centres undefined)
Compound 0.0316 µM
  viability, T/C: 81.8% and 95%
Compound 0.1 µM
  viability, T/C: 73.2% and 88.4%
Compound 0.316 µM
  viability, T/C: 68.2% and 60.5%
Compound 1 µM
  viability, T/C: 57.1% and 44.8%
Compound 3.16 µM
  viability, T/C: 39% and 31.4%
Compound 10 µM
  viability, T/C: 0.18% and 0.23%
Curve of compound
  IC50: 1540 nM and 837 nM

## Cn1ncnc1[C@H]1c2n[nH]c(=O)c3cc(F)cc(c23)N[C@@H]1c1ccc(F)cc1
Compound 0.000316 µM
  viability, T/C: 123% and 91.8%
Compound 0.001 µM
  viability, T/C: 81.7% and 109%
Compound 0.00316 µM
  viability, T/C: 80.4% and 90.1%
Compound 0.01 µM
  viability, T/C: 73.3% and 91.3%
Compound 0.0316 µM
  viability, T/C: 79.7% and 80.1%
Compound 0.1 µM
  viability, T/C: 70.6% and 68.1%
Curve of compound
  IC50: > 100 nM
